Reference: BindingDB's records for doi:10.1021/jm401604x (University of Auckland, 2014)
pIC50: −log10 of the molar value.

Assay: Inhibition of recombinant perforin (unknown origin)-mediated lysis of human [51Cr]-labelled Jurkat cells assessed as release of [51Cr] preincubated for 30 mins followed by addition of cells measured after 4 hrs by gamma counting analysis

Structure (SMILES)	pIC50
O=C1NC(=S)N/C1=C/c1ccc(-c2ccccc2Cl)s1	< 4.70
CN1CCN(CCCN2Cc3cc(-c4ccc(/C=C5/NC(=S)NC5=O)s4)ccc3C2=O)CC1	< 4.70
O=C1NC(=S)N/C1=C/c1ccc(-c2ccc(C(=O)N3CCOCC3)cc2)s1	< 4.70
CN(C)CCCN1Cc2cc(-c3ccc(/C=C4/NC(=S)NC4=O)s3)ccc2C1=O	< 4.70
O=C1NC(=S)N/C1=C/c1ccc(-c2ccc(C(=O)NCCN3CCOCC3)cc2)s1	< 4.70
O=C1NC(=S)N/C1=C/c1ccc(-c2ccccc2)s1	< 4.70
